Series [1] is described as follows: Isoelectric point by isoelectrofocusing. It counts as physicochemical. The text has this:
(§1) FIGS. 1A and 1B are photographs showing the direct detection of signal peptide and bacteriocin OR-7 after SDS-PAGE (A) and isoelectrofocusing (B). […] In FIG. 1A Lane 1-Molecular Mass Markers LMW Range 2,100-12,500 (Amersham Pharmacia Biotech): 2,100; 5,780; 8,400; 12,500 Da. […] Lane 3 contained pI standards (Protein Test Mixture, I Marker Proteins, Serva): 10.0, 9.2, 8.1, 6.9, 5.5, 4.3.
(§2) FIGS. 2A and 2B are photographs showing direct detection of signal peptide and bacteriocin 50-52 after SDS-PAGE (A) and isoelectrofocusing (B). […] Lane 3 contained pI standards (Protein Test Mixture, I Marker Proteins, Serva): 10.0, 8.1, 7.9, 6.4, 5.5, 4.3, 4.1, and 3.8.
(§3) FIGS. 3A and 3B are photographs showing the direct detection of signal peptide and bacteriocin 760 after SDS-PAGE(A) and isoelectrofocusing (B). […] Lane 3 contained pI standards (Protein Test Mixture, I Marker Proteins, Serva): 10.0, 8.1, 7.9, 6.4, 5.5, 4.3, 4.1, and 3.8.
At the end of 14 hours the supernatant from the cultures was placed into 500 ml centrifuge flasks with about one milliliter of regenerated Sepharose SP Fast Flow (v/v 500: 1). This was incubated for approximately 1 hour at room temperature with stirring. The suspension was then washed with about 100 ml of a 0.2 M TRIS-HCl buffer pH approximately 6.4. The bacteriocins were eluted by centrifugation with about 100 ml of approximately 0.2 M K2HPO4, pH of about 5.8 at about 7,000×g for approximately 10 minutes. Antagonistic activity of the bacteriocin fractions against C. jejuni and S. enteritidis was assessed using a Spot Test as described above. The level of purity of the bacteriocin fractions was determined by SDS-PAGE. The isoelectric points of the fractions were determined by isoelectric focusing. Concentrations of protein for all bacteriocin fractions were determined at 215 nm using a spectrophotometer.

The next series concerns Campylobacter jejuni. Briefly: Direct detection of antimicrobial activity: SDS-PAGE / isoelectrofocusing gel overlaid with Campylobacter jejuni. In kind it is cell-based.
From the text: as §1, §2, §3

A further series has as its system C. jejuni. Briefly: Spot Test, antagonistic activity of isolated signal peptides. Particulars: isolated signal peptide. It counts as cell-based, Campylobacter jejuni. How it is done:
(§4) The antagonistic activity of the bacteriocins produced when using the signal peptide and an inducer strain of bacteria against C. jejuni and S. enteritidis was assessed using a Spot Test. The steps included taking various concentrations of pure preparation (μg/ml) of the bacteriocin in approximately 10 microliters of volume plated onto blood-supplemented Campylobacter agar or Nutrient agar (MPA or Meta Peptone Agar) previously seeded with cells of target bacteria. Plates containing cultures of C. jejuni were grown at about 42° C., under microaerobic conditions. Plates containing S. enteritidis were grown at about 37° C. under aerobic conditions. Activity of the bacteriocin was expressed in arbitrary units (AU) per one milliliter of the preparation at which a visible zone of inhibition of the growth of culture appears (Henderson et al., Archives of Biochemistry and Biophysics, Volume 295, 5-12, 1992; herein incorporated by reference). Specific activity can also expressed as arbitrary units per milligram of pure bacteriocin.
(§5) Its activity was about 200 AU/ml and its molecular weight was about 2.5 kDa, as determined by SDS-PAGE electrophoresis. The isoelectric point (pI) was about 7.9 (FIGS. 1A and 1B).
(§6) Its molecular weight was about 3.1 kDa as measured by SDS-PAGE and the isoelectric point (pI) was about 8.1 (FIGS. 2A and 2B).
(§7) Its molecular weight was about 2.1 kDa as determined by SDS-PAGE electrophoresis and its isoelectric point was about 8.9 (FIGS. 3A and 3B).

The subject of another series is S. enteritidis. The series is described as above. In kind it is cell-based. Particulars: isolated signal peptide. The procedure: as §4, §5, §6, §7
The subject of series [2] is Lactobacillus salivarius PVD-32. Briefly: Influence of signal peptide on bacteriocin OR-7 production, flask culture (fraction protein at 215 nm, activity by Spot Test against C. jejuni and S. enteritidis). In kind it is cell-based. Particulars: for Activity / Protein Concentration / Protein increase vs. Control / Specific Activity / mg protein/liter: 10% B-B.
Series [3] shares this test system. Briefly: Bacteriocin OR-7 production with signal peptide under scaled up conditions (bioreactor). In kind it is cell-based. Particulars: V-61 reactor, 10% Brucella Broth, PVD-32, LWP252, peptide 0.2 mg, pH 6.9, 37° C., 14 hours.
Series [4] relates to Enterococcus faecium LWP 50-52. Briefly: Influence of signal peptide on bacteriocin 50-52 production, flask culture (fraction protein at 215 nm, activity by spot-test against C. jejuni and S. enteritidis). It counts as cell-based.
Series [5] relates to Streptococcus cricetus LWP 760. Briefly: Influence of signal peptide on bacteriocin 760 production, flask culture (fraction protein at 215 nm, activity by Spot Test against C. jejuni and S. enteritidis). It counts as cell-based.
The mark [6] stands for this setting: producer PVD32, no inducer, peptide 0.1 mg.
Where [7] appears, read: producer PVD-32 + inducer LWP-252, peptide 0.001 mg.
Where [8] appears, read: producer PVD-32 + inducer LWP-252, peptide 0.01 mg.
The mark [9] stands for this setting: producer PVD-32 + inducer LWP-252, peptide 0.1 mg.
[10] abbreviates: producer PVD-32, no inducer, peptide 0.001 mg.
Where [11] appears, read: producer PVD-32, no inducer, peptide 0.01 mg.
The mark [12] stands for this setting: LWP 50-52 + LWP 320, PVD-32 peptide 0.1 mg/ml.
[13] abbreviates: LWP 760 + LWP320, 0.1 mg PVD 32 peptide.

The source of these data is patent publication US7354904B2, “Bacteriocin inducer peptides” (priority 2005, dated 2008).

Consider “KTYYGTNGVHCTKNSLWGKVRLKNMKYDQNTTYMGRLQDILLGWATGAFGKTH (listed as Lactobacillus salivarius) [bacteriocin OR-7, bacteriocin produced by Lactobacillus salivarius PVD-32]”, for which the “isoelectric point (pI)” value in series [1] is “about 8.4”. Besides, the “antimicrobial activity of band (zone of growth inhibition)” value with Campylobacter jejuni is reported as “corresponds to the antimicrobial activity”.

Turning to “MVTKSLVLAWVVALLACGMVKGLT (listed as Lactobacillus salivarius) [PVD-32 Signal Peptide, signal peptide isolated from Lactobacillus salivarius PVD-32, stimulates bacteriocin OR-7 production]”, the Activity result is listed as “about 200 AU/ml” with C. jejuni; “about 200 AU/ml” in the series with S. enteritidis; 102,400 AU/ml in series [2] (setting [6]); 409,600 AU/ml in series [2] (setting [7]); 1,638,400 AU/ml in series [2] (setting [8]); 409,600 AU/ml in series [2] (setting [9]). The Activity is given as 204,800 AU/ml in series [2] (setting [10]); 204,800 AU/ml in series [2] (setting [11]); 3,276,800 AU/ml in series [3]; 819,200 AU/ml in series [4] (setting [12]); 1,638,840 AU/ml in series [5] (setting [13]). Also, the antagonistic activity entry with C. jejuni and in the series with S. enteritidis was “weak antagonistic activity” in each case. Also, in series [1], the “isoelectric point (pI)” value is “about 7.9”. The Protein Concentration turned out to be 0.18 Mg/ml in series [2] (setting [6]); 0.22 Mg/ml in series [2] (setting [7]); 0.65 Mg/ml in series [2] (setting [8]); 0.22 Mg/ml in series [2] (setting [9]); 0.2 Mg/ml in series [2] (setting [10]); 0.2 Mg/ml in series [2] (setting [11]). Besides, the figures for the “Protein Concentration” value in series [4] (setting [12]) and in series [5] (setting [13]) were 0.25 mg/mL and 0.30 mg/mL, respectively. Further, the “Protein increase vs. Control” value amounted to 0.9 in series [2] (setting [6]); 1.1 in series [2] (setting [7]); 3.25 in series [2] (setting [8]); 1.1 in series [2] (setting [9]); 1 in series [2] (setting [10]); 1 in series [2] (setting [11]). Moreover, in series [4] (setting [12]), the “Protein increase vs. Control” value amounted to 1. The “Specific Activity” value in series [2] (setting [6]) is on record as 568,888 AU/mg; in series [2] (setting [7]), 1,861,818 AU/mg; in series [2] (setting [8]), 2,520,615 AU/mg; in series [2] (setting [9]) it was 1,861,818 AU/mg; in series [2] (setting [10]), 1,024,000 AU/mg; in series [2] (setting [11]) it was 1,024,000 AU/mg. Further, the entries for the “Specific Activity” value in series [3], in series [4] (setting [12]) and in series [5] (setting [13]) were 2,184,533 AU/mg, 3,276,800 AU/mg and 5,462,666 Au/mg, respectively. The mg protein/liter in series [2] (setting [6]) is recorded as 59.4 mg protein/liter; in series [2] (setting [7]), 72.6 mg protein/liter; in series [2] (setting [8]), 214.5 mg protein/liter; in series [2] (producer PVD-32 + inducer LWP-252, peptide 0.01 mg, listed as signal peptide from PVD-32) it was “about 214.5 mg protein/liter”; in series [2] (setting [9]) it was 72.6 mg protein/liter; in series [2] (setting [10]), 66 mg protein/liter. In addition, the mg protein/liter was 66 mg protein/liter in series [2] (setting [11]) and 82.5 mg protein/liter in series [4] (setting [12]). In series [2] (simultaneous culture of PVD-32 and LWP-252 with signal peptide (flask and bioreactor)), the “production of bacteriocin OR-7 per liter of culture fluid” value is on record as 214-225 milligrams. Besides, the “Amount of Protein produced in One liter” value in series [3] amounted to 225 mg. The “Concentration of Protein” value in series [3] came to 1.5 mg/mL. Also, the figures for the “Increase in amount of protein vs. control” value in series [3] and in series [5] (setting [13]) were 3 and 1, respectively. In addition, the “yield of bacteriocin 50-52 versus the control” value in series [4] (signal peptide of another strain added to LWP 50-52 + LWP 320) is “did not increase”. Moreover, the “Protein Produced from 1 liter Culture Fluid” value in series [5] (setting [13]) is listed as 99 mg. Also, in series [5] (signal peptide of another strain added to LWP 760 + LWP 320), the “yield of bacteriocin 760 versus control” value is on record as “did not increase”.

With “TTKNYGNGVCNSVNWCQCGNVWASCNLATGCAAWLCKLA (listed as Enterococcus faecium) [bacteriocin 50-52, bacteriocin produced by Enterococcus faecium LWP 50-52]”, the “isoelectric point (pI)” value in series [1] is given as “about 8.4”. In the series on Campylobacter jejuni, the “antimicrobial activity of band (zone of growth inhibition)” value is recorded as “corresponds to the antimicrobial activity”.

B1: NRWYCNSAAGGVGGAAVCGLAGYVGEAKENIAGEVRKGWGMAGGFTHNKACKSFPGSGWASG (protein, listed as Streptococcus cricetus)
chain: NRWYCNSAAGGVGGAAVCGLAGYVGEAKENIAGEVRKGWGMAGGFTHNKACKSFPGSGWASG
notes: bacteriocin produced by Streptococcus cricetus LWP 760
Consider B1, for which the “isoelectric point (pI)” value in series [1] is “about 9.5”. In addition, the “antimicrobial activity of band (zone of growth inhibition)” value with Campylobacter jejuni was “corresponds to the antimicrobial activity”.
